Experimental data taken from US20230089949A1, “SMALL MOLECULES FOR TREATING AGE-RELATED RETINAL DISEASES” (University of Pittsburgh - Of the Commonwealth System of …, priority 2020, published 2023).

Experiments:
[1] = tested on: Aged Fischer 344 rats; test: Histological analysis of retinal outer nuclear layer (ONL) in aged Fischer 344 rats (Example 1); type: in vivo, rat
Description: Aged Fischer 344 rats were treated with oral 8-AG (5 mg/kg/day for 6 weeks; drug delivered via the drinking water), or were a control, and the eyes of the rats were harvested for histological analysis of the retinal outer nuclear layer (ONL) and the results were compared with a corresponding histological analysis of young Fischer 344 rats (FIG. 8). With advance age, there is likely to be a loss of photoreceptors with associated thinning and eventual loss of the overlying ONL (see Schuman et al., Ophthalmology, 116:488-96.e2, 2009)
The orientation of each eye was randomly embedded and sectioned. The fixed eyes were placed in a histology processing cassette for serial alcohol based dehydration. Dehydrated eyes were embedded in paraffin, and retinal cross sections were cut at 6 μm thickness. Retinal cross sections near the optic nerve were stained by hematoxylin and eosin (H&E). Images of H&E-stained retinal cross sections were collected under 4× and 20× objectives. […]
In each retinal cross section image under the 20× objective, the outer nuclear layer (ONL) thickness was measured at 6 locations along the image to calculate the average ONL thickness. […]

[2] = tested on: aged F344 rat retinae; test: Immunofluorescence of GFAP and CD68 in aged F344 rat retinae; type: in vivo; settings: 5 mg/kg bw per day in drinking water for eight weeks from 22 months of age
Description: Glial cells are activated upon photoreceptor degeneration, and retinal immune response is thought to contribute to photoreceptor degeneration as the disease progresses. Activated macrophages were reported to not only scavenge dead cells, but also can phagocytose living photoreceptors (McMenamin et al. Prog. Retin. Eye Res. 70, 85-98, doi:10.1016/j.preteyeres. 2018.12.002 (2019)).
(§1) For treatment, female F344 rats were orally administered with 5 mg per kg body weight (bw) of 8-aminoguanine (8-AG) per day in the drinking water starting at 22-24 months of age for 8 weeks. Non-treated age-matched F344 rats and young adult F344 rats at 3-4 months of age were used as controls. RhoP^23H/+ mice were administered with 8-AG for 11 mg per kg bw per day by intraperitoneal injections starting from postnatal day (PND) 15 for five weeks. PBS treated Rho^P23H/+ and WT mice were used as controls.
Eyes were enucleated by a surgical scissor cutting around the eyeball. Each eye was opened with a cut at the cornea side of the limbus, cut horizontally at the edge of the cornea for a circle, corneas removed and lens isolated. Eyecups were incubated in freshly prepared 4% paraformaldehyde for 2 hr. Fixed eyecups were dehydrated sequentially in 5, 10, 20 and 40% sucrose solutions in phosphate buffered saline (PBS) for 30 min each at room temperature. […]

[3] = tested on: aged F344 rat retinae; test: Retinal morphology (H&E, rhodopsin immunofluorescence) in F344 rat model of age-related photoreceptor degeneration (Example 2); type: in vivo
Description: To test the efficacy of 8-AG in photoreceptor degeneration, 8-AG was administered in two animal models including the F344 rat of age-related photoreceptor degeneration, and the Rho^P23H/+ knock-in mice of retinitis pigmentosa and examine the retinal morphology and function.
as §1
Eyes were enucleated by a surgical scissor cutting around the eyeball. Each eye was opened with a cut at the cornea side of the limbus, cut horizontally at the edge of the cornea for a circle, corneas removed and lens isolated. Eyecups were incubated in freshly prepared 4% paraformaldehyde for 2 hr. Fixed eyecups were dehydrated sequentially in 5, 10, 20 and 40% sucrose solutions in phosphate buffered saline (PBS) for 30 min each at room temperature. Finally, eyecups were incubated in a mixture of 40% sucrose in PBS and O.C.T. compound (FisherScientific, Houston, Tex. USA) at 3:7 volume ratio overnight at 4° C. before they are embedded in the same mixed solution in an orientation-specific manner and frozen in liquid nitrogen-bathed isobutene. A microtome made twelve-micron retinal cross-sections at −18° C. and those containing the optic nerve head were applied onto a SUPERFROST™ glass slide (FisherScientific, Houston, Tex. USA). These slides were then used for IHC.
After rehydration and permeabilization in PBST for 15 min, retinal sections were incubated in 5% goat serum for 30 min, and then they were incubated with 5% goat serum containing the primary antibodies. […]

[4] = tested on: aged F344 rat retinae; test: Immunoblots of protein markers of mitochondria function, oxidative stress and apoptosis in aged F344 rat retinae; type: in vivo
Description: A range of protein markers of mitochondria function and apoptosis was probed in the retinae of young, aged and 8-AG treated aged F344 rat retinae, as well as the mitochondrial superoxide dismutase 2 (SOD2), an enzyme protecting tissue from damage by ROS, using immunoblots. […] The fact that chronic 8-AG […] retinal levels of SOD2 is consistent with reduced retinal oxidative stress in 8-AG-treated aged rats.
as §1
Western Immunoblotting: The freshly isolated retinae were homogenized using Lysing Matrix D in a FASTPREP-24™ instrument (MP Biomedicals) in HBSS buffer (5 mM KCl, 0.3 mM KH2PO4, 138 mM NaCl, 4 mM NaHCO3, 0.3 mM Na2HPO4, 5.6 mM glucose, and 10 mM HEPES, pH 7.4) containing complete protease inhibitor cocktail (1 tablet/10 ml, Roche) and phosphatase inhibitor cocktail (MilliporeSigma, 1:100). After centrifugation (16200 g, 15 minutes at 4° C.), the membrane protein fraction was prepared by suspending the membrane pellets in lysis buffer containing 0.3M NaCl, 50 mM Tris-HCl (pH 7.6), and 0.5% Triton X-100, as well as the same concentration of protease inhibitors as above. The suspensions were incubated on ice and centrifuged (16200 g, 15 minutes at 4° C.). The protein concentrations of the combined supernatants were determined using the Pierce BCA protein assay (Thermo Fisher Scientific). Two μg of unheated total protein was loaded on a 4%-15% TGX Stain-Free SDS-PAGE gel (Bio-Rad). As a reliable loading control, total protein measurement per sample was determined using Bio-Rad Stain Free SDS-PAGE gel technology. UV-activated protein fluorescence was imaged on a ChemiDoc MP (Bio-Rad). The gel was electrotransferred to polyvinylidene fluoride membrane and immunoblotted with 1D4 anti-rhodopsin antibody (5 μg/mL). After washing in TBS-T, the membranes were incubated with secondary antibody, sheep anti-mouse HRP (Southern Biotech), developed using WESTERNBRIGHT® Quantum (Advansta), and imaged on a ChemiDoc MP (BioRad). The volume (intensity) of each protein species was determined and normalized to total protein using Image Lab software (Bio-Rad).

[5] = tested on: Dahl salt-sensitive rats; test: Chronic effects of 8-AG in Dahl salt-sensitive rats on high salt diet (MRI, organ histology); type: in vivo, rat; settings: high salt diet with 8AG for 40 days; independent veterinary pathology lab
From the text: (§2) While the genetic loss of PNPase activity is toxic and results in a compromised immune system, partial inhibition of PNPase by pharmacological administration is safe. The chronic effects of 8-AG have been examined in Dahl salt-sensitive rats, which is a model of genetic hypertension that is exacerbated by providing a high salt diet. […] Next, organs from these animals were examined histologically by an independent veterinary pathology lab.

[6] = tested on: animals; test: Observed toxicity in the animal experiments that were performed; type: in vivo
From the text: as §2

[7] = tested on: aged F344 rat retinae; test: Electroretinogram (ERG) of aged F344 rats, 0 vs 4 wks; type: in vivo; settings: 5 mg/kg bw per day in drinking water; 4 wks vs 0 wk
Description: (§3) The potent efficacy of 8-AG in preserving retinal morphology and function of the aged F344 rats and Rho^P23H/+ mice were shown in FIGS. 11A-11D and […].
(§4) Electroretinogram (ERG): ERG was performed using the Celeris system (Diagnosys, Lowell, Mass., USA). Rats were placed in the dark overnight. During the ERG test, protect the rats from the light from the beginning to the finish of the scotopic test, only use the dim light to do the preparation in the dark room. Pupils were dilated with 1% tropicamide (Akorn, Lake Forest, Ill., USA) and 2.5% phenylephrine (Sigma). Rats were anesthetized with an intraperitoneal injection of ketamine at 80 mg/kg bw and xylazine at 7 mg/kg bw. Eyes were lubricated by a 0.3% hypromellose eye gel (Alcon, Fort Worth, Tex., USA). A heating pad was used to maintain body temperature at 37° C. Scotopic ERG responses of dark-adapted eyes to ten flashes from 0.0001 cd·s/m^2 to 100 cd·s/m^2 were recorded and averaged from three sweeps per flash intensity with inter-sweep intervals of 10 to 30 s. After exposed to 10 cd/m^2 illumination for 10 min, the photopic ERG responses were recorded from the light-adapted eyes in response to flashes from 0.01 cd·s/m^2 to 100 cd·s/m^2 in addition to a 10 cd/m^2 background light. P-values were calculated by a two-way ANOVA to determine the statistical significance between the response amplitudes in the 8-AG treated group and untreated group. Factor 1, treatment condition; and factor 2, flash intensity.

[8] = tested on: Dahl salt-sensitive rats; settings: high salt diet with 8AG for 40 days; vs untreated high-salt control; cited from earlier work
[9] = tested on: aged F344 rat retinae; test: SD-OCT of ONL thickness in aged F344 rats, 0 vs 4 wks; type: in vivo
Description: as §3
Optical coherence tomography (OCT): To assess the 8-AG treatment on old F344 rats, ultrahigh-resolution SD-OCT (Bioptigen, Morrisville, N.C.) was performed for in vivo imaging of rats retinas. Pupils were dilated with 1% tropicamide (Akorn, Lake Forest, Ill., USA) and 2.5% phenylephrine (Sigma). Rats were anesthetized with an intraperitoneal injection of ketamine at 80 mg/kg bw and xylazine at 7 mg/kg bw. Eyes were lubricated by a 0.3% hypromellose eye gel (Alcon, Fort Worth, Tex., USA). A heating pad was used to maintain body temperature; the A scan/B scan ratio was set at 1200 lines. Five frames of OCT images scanned at 0° were acquired in the B-mode, averaged, and saved as pdf files. To measure changes to photoreceptors in the retinas assess the effect of 8-AG on retinal protection, the thickness of the ONL was measured along with the scanned SD-OCT image at 6 points from the temporal to nasal end of the retina. A graph of ONL thicknesses was plotted to obtain the means and standard error (SE) of the samples.

[10] = tested on: Rho^P23H/+ knock-in mice; test: Retinal morphology and scotopic ERG in Rho P23H/+ knock-in mice of retinitis pigmentosa; type: in vivo, mouse; settings: 11 mg per kg bw per day i.p. for five weeks from PND 15
Description: as §1, §4
Retinal histology and H&E staining: To examine the structure of the aging rats' retinas treated with 8-AG, the rats were euthanized, their eyes removed, and fixed in 4% paraformaldehyde and 1% glutaraldehyde before paraffin sectioning. […]

[11] = 5 mg per kg bw per day in drinking water for 8 weeks from 22 months of age, central, equatorial and peripheral sites, vs untreated age-matched group
[12] = 5 mg/kg bw per day in drinking water from 24 months, 4 wks compared to before treatment

Structure (SMILES): Nc1nc2[nH]c(N)nc2c(=O)[nH]1 [8-AG, 8-aminoguanine]
- ONL preservation in retinal edges ([1]; oral 8-AG 5 mg/kg/day for 6 weeks via drinking water, edge of old retinae, retinal edges with preserved ONL): 7 out of 8
- ONL thickness, effect of treatment (2-way ANOVA) ([1]; oral 8-AG 5 mg/kg/day for 6 weeks, treated vs untreated old rats, independent of retinal location): significant
- GFAP staining [2]: did not affect
- number of CD68+ cells [2]: significantly reduced
- ONL thickness [3, 11]: distinctively increased
- OS/IS thickness [3, 11]: distinctively increased
- Rhodopsin levels (immunofluorescence) ([3]; 5 mg per kg bw per day in drinking water for 8 weeks, vs untreated aged retinae): increased
- retinal levels of SOD2 ([4]; chronic oral 8-AG 5 mg/kg for 8 wks, immunoblot, aged rats): decreased
- Rhodopsin levels (immunoblot) ([4]; oral 8-AG 5 mg/kg for 8 wks, aged F344 retina): restored
- retinal MFN2 levels ([4]; oral 8-AG 5 mg/kg for 8 wks, immunoblot): further increased
- cleaved CASP3 ([4]; oral 8-AG 5 mg/kg for 8 wks, immunoblot, aged retinae): reduced
- microscopic alterations in heart, kidney, liver, aorta, adrenal gland (histology) [5]: No treatment-related microscopic alterations
- toxicity [6]: no observed toxicity
- photopic b wave responses [7]: did not affect
- scotopic a-wave [7]: significantly increased
- scotopic b-wave [7]: significantly increased
- strokes in the cerebral cortex and subcortical areas (MRI) [8]: protected from strokes
- ONL thickness, nasal side (SD-OCT) [9, 12]: slight increase
- ONL thickness, temporal side (SD-OCT) [9, 12]: no change
- ONL at sites where it had disappeared before treatment (SD-OCT) ([9]; single exemplary retina, 4 wks of treatment): reappeared
- ONL layer thickness ([10]; H&E): thicker
- scotopic ERG a-wave response ([10]; vs vehicle control group): significantly higher
- scotopic ERG b-wave response ([10]; vs vehicle control group): significantly higher
